Assay results reported in patent publication US7807668B2, “Anti-inflammatory compounds” (New Zealand Institute for Crop & Food Research Limited, priority 2004, dated 2010).
Like-named read-outs stand apart in the source and are kept apart here.

Assays:
rat glioma cells = settings: in vitro; cited from earlier work
human neutrophils = assay: In vitro respiratory burst (superoxide) assay; format: cell-based; settings: Neutrophil, concentration required to reduce superoxide production to 50% of control, PMA-triggered respiratory burst, WST-1 dye reduction, compound 30 min before, read-out: Al50 (the source's name)
Experimental: Human neutrophils were isolated from anti-coagulated whole human blood using a Polymorphprep (density 1.13 g/mL, centrifuge 500×g, 40 min). Neutrophils were washed with PBS and plated out at 2×10^6 neutrophils per mL.
Neutrophils were treated with the compound (in DMSO) 30 minutes prior to addition of the detection dye WST-1 (5.5 mM). The respiratory burst was triggered by addition of PMA (200 ng/mL) and dye reduction was monitored (OD 450) for 25 minutes at 37° C.
Respiratory burst activity was calculated as the rate of dye reduction over time and was normalised to untreated cell controls. Anti-inflammatory activity is reported in Table 2 as the concentration required to reduce superoxide production to 50% of control, Al50.

[1] = tested on: neutrophils in the peritoneal wash; assay: Mouse gout model (monosodium urate crystal-induced murine peritonitis); format: in vivo; settings: Neutrophil, oral, immediately prior to MSU crystals i.p.
Experimental: Mouse Peritionitis was induced by intraperitoneal injection of 1 to 5 mg monosodium urate (MSU) crystals, in […] PBS (0.1M, pH 7.4). Animals were treated with the compound(s) (in 250 μL PBS orally) at the doses indicated immediately prior to administration of the MSU crystals. 4 hours post administration, animals were euthanased by CO2 exposure. The peritoneal cavity was washed with 3 mL of PBS containing 3 mM EDTA and 25 U/mL of heparin. The total cells in the lavage fluid were counted and an appropriate volume retained for H and E staining for differential counting (Getting et al. Molecular Determinants of Monosodium Urate Crystal—induced Murine Peritonitis: A role for Endogenous Mast Cells and a Distinct Requirement for Endothelial-derived Selectins. J. Pharmacology and Experimental Therapeutics 1997, 283: 123-30).
Treatment groups were as follows:
Untreated Control (Naive)
PBS Control (PBS oral+MSU crystals)
Compound(s),(oral)+MSU crystals

[2] = tested on: lymphocytic leukemia cells; settings: in vitro; cited from earlier work
[3] = superoxide activity of neutrophils in peritoneal wash 4 hours post, read-out: % suppression Superoxide production
[4] = peritoneal wash 4 hours post, total neutrophils per mL, read-out: % suppression Neutrophil infiltration

SMILES	cytotoxic to rat glioma cells (rat glioma cells)	IC50 (human neutrophils) [µM]	inhibition in vivo at 25.6 µmol/kg [1, 3] [%]	inhibition in vivo at 25.6 µmol/kg [1, 4] [%]	cytotoxic to lymphocytic leukemia cells [2]
CC(C)=CCCc1ccc2c(c1)C(=O)C1=C(NCCS1(=O)=O)C2=O [(A)]	cytotoxic				
CC(C)=CCCc1ccc2c(c1)C(=O)C1=C(C2=O)S(=O)(=O)CCN1 [(B)]	cytotoxic				
O=C(O)c1ccc2c(n1)C(=O)C1=C(C2=O)S(=O)(=O)CCN1 [Compound 1, 2H-Pyrido[2,3-g][1,4]benzothiazine-5,10-dione, 3,4-dihydr-1,1-dioxo-7-carboxylic acid]		0.14			
O=C(O)c1ccc2c(n1)C(=O)C1=C(NC=CS1(=O)=O)C2=O [Compound 2]		0.07			
COC(=O)c1ccc2c(n1)C(=O)C1=C(C2=O)S(=O)(=O)CCN1 [Compound 3, Methyl-2H-pyrido[2,3-g][1,4]benzothiazine-5,10-dione, 3,4-dihydro-1,1-dioxo-7-carboxylate]		1.12	80		
CCCCCCCCOC(=O)c1ccc2c(n1)C(=O)C1=C(C2=O)S(=O)(=O)CCN1 [Compound 4, Octyl-2H-pyrido[2,3-g][1,4]benzothiazine-5,10-dione, 3,4-dihydro-1,1-dioxo-7-carboxylate]		9.04			
N#Cc1ccc2c(n1)C(=O)C1=C(C2=O)S(=O)(=O)CCN1 [Compound 5, 2H-Pyrido[2,3-g][1,4]benzothiazine-5,10-dione, 3,4-dihydro-1,1-dioxo-7-carbonitrile]		1.57	50	25	
N#Cc1ccc2c(O)c3c(c(O)c2n1)NCCS3(=O)=O [Compound 6, 2H-Pyrido[2,3-g][1,4]benzothiazine-5,10-dihydroxy, 3,4-dihydro-1,1-dioxo-7-carbonitrile]		4.85			
Cc1ccc2c(n1)C(=O)C1=C(C2=O)S(=O)(=O)CCN1 [Compound 9, 2H-Pyrido[2,3-g][1,4]benzothiazine-5,10-dione, 3,4-dihydro-7-methyl-1,1-dioxide]		> 90	80	50	
Cc1ccc2c(n1)C(=O)C1=C(NCCS1(=O)=O)C2=O [Compound 10, 1H-Pyrido[3,2-g][1,4]benzothiazine-5,10-dione, 2,3-dihydro-7-methyl-1,1-dioxide]		> 90	40	30	
O=C1C2=C(NCCS2(=O)=O)C(=O)c2ncccc21 [Compound 11, 2H-Pyrido[2,3-g][1,4]benzothiazine-5,10-dione, 3,4-dihydro-1,1-dioxide]		30	20	30	
CN(C)C(=O)c1ccc2c(n1)C(=O)C1=C(C2=O)S(=O)(=O)CCN1 [Compound 12, 2H-Pyrido[2,3-g][1,4]benzothiazine-5,10-dione, 3,4-dihydro-N,N-dimethyl-1,1-dioxo-7-carboxamide]		79	85	65	
CN(C)C(=O)c1ccc2c(n1)C(=O)C1=C(NCCS1(=O)=O)C2=O [Compound 13, 1H-Pyrido[3,2-g][1,4]benzothiazine-5,10-dione, 2,3-dihydro-N,N-dimethyl-1,1-dioxo-7-carboxamide]		149			
O=C(/C=C/c1ccc2c(n1)C(=O)C1=C(C2=O)S(=O)(=O)CCN1)c1ccccc1 [Compound 16, (E)-1-phenyl-3-(2H-Pyrido[2,3-g][1,4]benzothiazine-5,10-dione, 3,4-dihydro-1,1-dioxide)prop-2-en-1-one.]		7.76	65	30	
O=C1C2=C(NCCS2(=O)=O)C(=O)c2nc(C3OCCO3)ccc21 [Compound 17]		> 74			
O=Cc1ccc2c(n1)C(=O)C1=C(C2=O)S(=O)(=O)CCN1 [Compound 18, 2H-Pyrido[2,3-g][1,4]benzothiazine-5,10-dione, 3,4-dihydro1,1-dioxo-7-carbaldehyde]		4.17	40		
COC(O)c1ccc2c(n1)C(=O)C1=C(C2=O)S(=O)(=O)CCN1 (stereo not drawn) [Compound 19]		13			
O=C(O)c1ccc2c(n1)C(=O)C1=C(C2=O)S(=O)(=O)C=CN1 [Compound 20, 4H-Pyrido[2,3-g][1,4]benzothiazine-5,10-dione-1,1-dioxo-7-carboxylic acid]		0.09			
Cc1ccc2c(n1)C(=O)C1=C(C2=O)S(=O)(=O)C=CN1 [Compound 21, 4H-Pyrido[2,3-g][1,4]benzothiazine-5,10-dione-7-methyl-1,1-dioxide]		8.93	40	30	
O=C1C2=C(C(=O)c3ccccc31)S(=O)(=O)CCN2 [Compound 22, 2H-Naphtho[2,3-b]-1,4-thiazine-5,10-dione, 3,4-dihydro-1,1-dioxide]		> 106	80	25	cytotoxic
